For test [1], the target named is Melanocortin receptor 4 (Homo sapiens) (UniProt P32245). Briefly: Agonist activity at human MC4R transfected in HEK293T cells co-transfected with GScAMP22F assessed as increase in cAMP level. Type of test: functional, cell-based. The following applies: HEK293, filed as agonist. On the technique in general: cAMP levels reflect the balance of adenylyl cyclase and phosphodiesterase activity.

Test [2] deals with T1, Melanocortin receptor 3 (Homo sapiens, UniProt P41968). Briefly: Agonist activity at human MC3R transfected in HEK293T cells co-transfected with GScAMP22F assessed as increase in cAMP level. Type of test: functional, cell-based. The following applies: HEK293, filed as agonist.
Test [3] deals with Melanocyte-stimulating hormone receptor (Homo sapiens) (UniProt Q01726). The test is described as follows: Agonist activity at human MC1R transfected in HEK293 cells co-transfected with GScAMP22F assessed as increase in cAMP level by split luciferase cAMP sensor dynamic assay relative to control. Type of test: functional, cell-based.
The target of test [4] is Melanocortin receptor 4 (Homo sapiens) (UniProt P32245). Briefly: Antagonist activity at human MC4R transfected in HEK293T cells co-transfected with GScAMP22F assessed as inhibition of alpha-MSH-indued cAMP production. Type of test: functional, cell-based. The following applies: HEK293, filed as antagonist.
Test [5] addresses T1, Melanocortin receptor 3. Briefly: Antagonist activity at human MC3R transfected in HEK293T cells co-transfected with GScAMP22F assessed as inhibition of alpha-MSH-indued cAMP production. Type of test: functional, cell-based. The note with it: HEK293, filed as antagonist.
The target of test [6] is T1, Melanocortin receptor 3. The test is described as follows: Agonist activity at human MC3R transfected in HEK293 cells assessed as cAMP accumulation by split-luciferase assay.
In test [7] the target is Melanocortin receptor 5 (Homo sapiens) (UniProt P33032). Briefly: Agonist activity at human MC5R transfected in HEK293 cells co-transfected with GScAMP22F assessed as increase in cAMP level by split luciferase cAMP sensor dynamic assay relative to control. Type of test: functional, cell-based.

Activity, Emax and EC50 data for eight molecules are collected here from ChEMBL document CHEMBL5154855 (J Med Chem, 2022).

pEC50: −log10 of the molar value. Activity calls are given as the source filed them. The rule behind the calls is not given here. Positions of bridges follow the written chain, without caps; N, C: chain ends. Non-standard residues stand in square brackets, D forms with d. Residues, ends and D or L forms follow the SMILES beside them. d2Nal = N[C@H](Cc1ccc2ccccc2c1)C(=O)O; Nle = CCCC[C@H](N)C(=O)O Bounds are passed on as bounds.

Chain of Melanocortin receptor 4 (Homo sapiens) (P32245 whole entry): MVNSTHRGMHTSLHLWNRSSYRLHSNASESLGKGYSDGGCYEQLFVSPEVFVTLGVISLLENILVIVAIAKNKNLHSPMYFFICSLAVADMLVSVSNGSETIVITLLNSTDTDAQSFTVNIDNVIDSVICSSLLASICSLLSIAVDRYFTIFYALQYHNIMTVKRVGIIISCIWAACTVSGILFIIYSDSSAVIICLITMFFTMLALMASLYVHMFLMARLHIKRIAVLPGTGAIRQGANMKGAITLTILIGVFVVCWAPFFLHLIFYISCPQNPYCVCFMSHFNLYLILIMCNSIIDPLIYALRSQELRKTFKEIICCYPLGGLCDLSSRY
T1 sequence (P41968 whole entry): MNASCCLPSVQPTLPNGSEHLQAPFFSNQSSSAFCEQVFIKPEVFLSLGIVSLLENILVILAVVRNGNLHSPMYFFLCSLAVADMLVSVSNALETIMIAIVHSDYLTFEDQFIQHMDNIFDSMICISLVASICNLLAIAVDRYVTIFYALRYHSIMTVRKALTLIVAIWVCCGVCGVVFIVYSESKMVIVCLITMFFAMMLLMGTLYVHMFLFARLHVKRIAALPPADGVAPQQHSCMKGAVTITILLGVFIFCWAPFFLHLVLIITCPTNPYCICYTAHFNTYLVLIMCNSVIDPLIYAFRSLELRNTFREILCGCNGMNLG
Chain of Melanocortin receptor 5 (Homo sapiens) (P33032 whole entry): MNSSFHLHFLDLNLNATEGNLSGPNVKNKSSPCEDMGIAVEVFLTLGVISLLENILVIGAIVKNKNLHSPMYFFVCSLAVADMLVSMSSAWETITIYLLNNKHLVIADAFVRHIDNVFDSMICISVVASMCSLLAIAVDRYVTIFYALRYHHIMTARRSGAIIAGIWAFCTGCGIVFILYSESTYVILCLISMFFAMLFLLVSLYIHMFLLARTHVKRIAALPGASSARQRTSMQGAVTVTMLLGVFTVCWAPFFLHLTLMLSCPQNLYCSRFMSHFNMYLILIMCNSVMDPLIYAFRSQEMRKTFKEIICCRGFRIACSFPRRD
Chain of Melanocyte-stimulating hormone receptor (Homo sapiens) (Q01726 whole entry, looked up): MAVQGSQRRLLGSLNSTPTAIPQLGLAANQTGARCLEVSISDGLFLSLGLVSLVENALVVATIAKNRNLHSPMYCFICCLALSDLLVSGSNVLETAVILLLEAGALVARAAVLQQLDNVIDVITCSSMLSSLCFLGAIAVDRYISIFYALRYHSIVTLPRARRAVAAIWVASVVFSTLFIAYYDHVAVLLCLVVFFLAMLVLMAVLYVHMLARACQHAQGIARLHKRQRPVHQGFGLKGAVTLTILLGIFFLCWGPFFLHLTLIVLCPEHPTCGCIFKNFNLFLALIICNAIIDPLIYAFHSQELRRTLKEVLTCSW

As for `CC(=O)N[C@@H](CCCNC(=N)N)C(=O)N[C@H]1CSSC[C@@H](C(N)=O)NC(=O)[C@H](Cc2c[nH]c3ccccc23)NC(=O)[C@H](CCCNC(=N)N)NC(=O)[C@@H](Cc2ccccc2)NC(=O)[C@H](Cc2c[nH]cn2)NC(=O)[C@@H](C)NC1=O`, the result in test [1] and in test [2] was Active. As to `CCCC[C@H](N)C(=O)N[C@H]1CC(=O)NCCCC[C@@H](C(N)=O)NC(=O)[C@H](Cc2c[nH]c3ccccc23)N(C)C(=O)[C@H](CCCNC(=N)N)NC(=O)[C@@H](Cc2ccccc2)NC(=O)[C@@H]2CCCN2C1=O`, the result in test [1] and in test [2] was Active. For orientation: Emax means the size of the effect at its maximum, as opposed to the concentration needed. Consider `CCCC[C@H](NC(C)=O)C(=O)N[C@H]1CC(=O)NCCCC[C@@H](C(N)=O)NC(=O)[C@H](Cc2c[nH]c3ccccc23)NC(=O)[C@H](CCCNC(=N)N)NC(=O)[C@@H](Cc2ccc3ccccc3c2)NC(=O)[C@@H]2CCCN2C(=O)[C@@H]2CCCN2C1=O` (Ac-[Nle]DPP[d2Nal]RWK-NH2; lactam 2-8), for which the Emax in test [3] was < 10%. As to `CCCC[C@H](NC(=O)[C@@H](NC(=O)[C@@H](N)Cc1ccc(O)cc1)C(C)C)C(=O)NCC(=O)N[C@@H](Cc1cnc[nH]1)C(=O)N[C@@H](Cc1ccccc1)C(=O)N[C@@H](CCCNC(=N)N)C(=O)N[C@H](Cc1c[nH]c2ccccc12)C(=O)N[C@@H](CC(=O)O)C(=O)N[C@@H](CCCNC(=N)N)C(=O)N[C@@H](Cc1ccccc1)C(=O)NCC(=O)O`, the outcome in test [1] was Active. On to `CCCC[C@H](NC(=O)[C@@H](NC(=O)[C@@H](N)Cc1ccc(O)cc1)C(C)C)C(=O)NCC(=O)N[C@@H](Cc1cnc[nH]1)C(=O)N[C@H](Cc1ccc2ccccc2c1)C(=O)N[C@@H](CCCNC(=N)N)C(=O)N[C@H](Cc1c[nH]c2ccccc12)C(=O)N[C@@H](CC(=O)O)C(=O)N[C@@H](CCCNC(=N)N)C(=O)N[C@@H](Cc1ccccc1)C(=O)NCC(=O)O`, for which the result in test [4] and in test [5] was Active.

In general, pEC50 refers to the negative decadic logarithm of the EC50, by convention in mol/L. For `CCCC[C@H](NC(=O)[C@@H](NC(=O)[C@@H](N)Cc1ccc(O)cc1)C(C)C)C(=O)NCC(=O)N[C@@H](Cc1c[nH]cn1)C(=O)N[C@H](Cc1ccc2ccccc2c1)C(=O)N[C@@H](CCCN=C(N)N)C(=O)N[C@@H](Cc1c[nH]c2ccccc12)C(=O)N[C@@H](CC(=O)O)C(=O)N[C@@H](CCCN=C(N)N)C(=O)N[C@@H](Cc1ccccc1)C(=O)NCC(N)=O`, the pEC50 in test [6] was < 5.00. In the case of `CC(=O)N[C@@H](CCCNC(=N)N)C(=O)N[C@@H]1CSSC[C@H](C(N)=O)NC(=O)[C@H](Cc2c[nH]c3ccccc23)NC(=O)[C@H](CCCNC(=N)N)NC(=O)[C@@H](Cc2ccc3ccccc3c2)NC(=O)[C@H](Cc2c[nH]cn2)NC(=O)[C@@H](C)NC1=O`, the outcome in test [4] and in test [5] was Active. `CCCC[C@H](NC(=O)[C@@H](NC(=O)[C@@H](N)Cc1ccc(O)cc1)C(C)C)C(=O)NCC(=O)N1CCC[C@H]1C(=O)N[C@H](Cc1ccc2ccccc2c1)C(=O)N[C@@H](CCCN=C(N)N)C(=O)N[C@@H](Cc1c[nH]c2ccccc12)C(=O)N[C@@H](CC(=O)O)C(=O)N[C@@H](CCCN=C(N)N)C(=O)N[C@@H](Cc1ccccc1)C(=O)NCC(N)=O` (H-YV[Nle]GP[d2Nal]RWDRFG-NH2): in test [7], the Emax is < 10%.
